In publication PMC9299485, “4‐Iodopyrimidine Labeling Reveals Nuclear Translocation and Nuclease Activity for Both MIF and MIF2” (Chemistry (Weinheim an Der Bergstrasse, Germany), 2021):
Where two headings read alike, the source gives them in different places.

How the values were obtained:
MIF [1] = target: T1, MIF (Homo sapiens, UniProt P14174); experiment: MIF tautomerase activity inhibition (4-HPP substrate, UV 306 nm); type: biochemical; conditions: for potency relative to corresponding chloro-substituted intermediate: iodo compound vs chloro intermediate
T1 construct: His tag (C); made in house; host or cells: Escherichia coli BL21 (DE3), pET-20b(+)
T1 sequence (P14174 2-115 limits assumed): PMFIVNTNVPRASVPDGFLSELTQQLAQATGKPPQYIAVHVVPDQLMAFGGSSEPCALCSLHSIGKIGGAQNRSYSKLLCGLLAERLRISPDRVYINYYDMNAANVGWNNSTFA
Method: 2. Preparation of recombinant MIF and MIF2.
The detailed procedure to produce C-terminal His-tagged recombinant human MIF was reported in our previous publications.[1,4,5] rhMIF was expressed through transforming a pET-20b(+) plasmid containing the target gene into Escherichia coli BL21 (DE3) according to literature procedures.[6] Overexpression was performed and cells were collected and sonicated.
The obtained supernatant was applied to a medium pressure chromatography system (Biologic Duoflow) equipped with a His trap HP (5 mL) column with detection at 280 nm for the eluent.
The column was washed with a binding buffer containing 50 mM Tris and 10% glycerol at pH 7.4 and eluted with elution buffer containing 500 mM imidazole, 50 mM Tris, 10% glycerol at pH 7.4. The pure fractions (as judged by SDS-PAGE) were pooled and subjected to a PD-10 column (GE healthcare) that was equilibrated with PBS buffer at pH 7.4 to remove the high concentration of imidazole. The collected MIF solution was divided into 50 µL aliquots and stored at –80 °C. Purity of obtained protein was tested by SDS-PAGE and Coomassie staining.
The concentration of protein was determined using the Bradford assay.
(§1) The detailed procedure to produce recombinant human MIF2 was reported in our previous publications.[7] Gene sequences of the human MIF2 gene (Invitrogen) was adapted to bacterial expression. After subcloning into a pET20b(+) expression vector, IPTG-induced expression was performed in E.coli strain BL21(DE3). MIF2 proteins were overproduced overnight and harvested cells were resuspended and sonicated. The soluble fraction was puriﬁed using a Q sepharose column (GE Healthcare) with a gradient of NaCl. The fractions containing MIF2 were brought to 1.7 M ammonium sulfate and loaded on a phenyl sepharose column (GE Healthcare) and eluted with a gradient to 0 M ammonium sulfate in a 20 mM sodium phosphate buffer, pH 8.0. Finally, the proteins were purified by size exclusion chromatography on a Superdex75 column (GE Healthcare) in 20 mM sodium phosphate buffer, pH 8.0, with an elution volume characteristic for trimeric MIF2. The collected protein was concentrated using a VivaSpin centrifugation column with a molecular weight cut off at 5000 D a (Sartorius Stedim Biotech GmbH). Purified proteins were aliquoted, snap frozen in liquid nitrogen, and stored at –80 °C. Purity of obtained protein was tested by SDS-PAGE and coomassie staining. The concentration of protein was determined using the Bradford a ssay.
(§2) 3.1 MIF and MIF2 Inhibition
(§3) The protocol for measuring inhibition of MIF or MIF2 tautomerase enzyme activity was described previously.[5] 500 nM MIF solution (180 µL) or 100 nM MIF2 solution (180 µL) in boric acid buffer ([…], pH 6.2) was mixed with 20 mM EDTA solution (10 µL) in demineralized water. A solution of the desired compound dissolved in DMSO (10 µL) or blank DMSO (10 µL) was added. The resulting mixture was preincubated at room temperature for 10 minutes.
(§4) Subsequently, 50 µL of this mixture was mixed with 50 µL of a 1 mM 4-HPP solution for MIF or 1 mM PP solution for MIF2 in ammonium acetate buffer (50 mM, pH 6.0). Thereafter, MIF or MIF2 tautomerase activity was monitored by measuring the increase of UV absorbance at 306 nm for MIF or 300 nm for MIF2 over time. The MIF or MIF2 tautomerase activity of the mixture with blank DMSO dilution was set to 100% enzyme activity. Noncatalyzed conversion of the substrate in the mixture without MIF or MIF2 was set to 0%. The data acquired from the first 3 minutes of the measurement were used to calculate the initial conversion speed. All experiments were performed in triplicate and data processing was done using the program […]
(§5) Table S1. IC50 values (10 min) and inactivation parameters of synthesized compounds.
(§6) (1 picture or pasted object on this page, not shown here)

MIF2 [2] = target: T2, MIF2 (Homo sapiens, UniProt P30046); experiment: MIF2 tautomerase activity inhibition (PP substrate, UV 300 nm); type: biochemical
T2 construct: made in house; host or cells: E. coli BL21(DE3), pET20b(+)
Method: 2. Preparation of recombinant MIF and MIF2. […]
Purity of obtained protein was tested by SDS-PAGE and Coomassie staining. […]
as §1, §2, §3, §4, §5, §6

MIF2 [3] = target: T2, MIF2; experiment: Labeling of recombinant MIF2 by probe 8, SDS-PAGE in-gel fluorescence, competition; type: binding; conditions: Figure 2G
Method: (§7) 4. Purified protein labeling and Mass spectra
(§8) 4.1 MIF or MIF2 labeling with probe 8
(§9) MIF or MIF2 were diluted to desired concentration with PBS buffer and incubated with probe
(§10) 8 at corresponding concentration and for corresponding time. Subsequently, the mixture was
(§11) denatured (99 °C, 10 min). Labeled protein and free probe were separated by 12% Bis-Tris gel
(§12) (Bio-Rad Laboratories, #4561084). Probe 8 labeled protein was visualized using in-gel
(§13) 4.2 MIF or MIF2 labeling and mass spectra
(§14) Figure S2. Mass spectra of labeled MIF2. (A) Native MIF2 and probe 8 (B) or probe 9 (C)
as §6

MIF [4] = target: T1, MIF; experiment: Labeling of recombinant MIF by probe 8, SDS-PAGE in-gel fluorescence, competition; type: binding; conditions: pre-treatment of MIF with competitor, Figure 2C, D
Method: as §7, §8, §9, §10, §11, §12, §13, §14, §6

MIF [5] = target: T1, MIF; experiment: Kitz-Wilson inactivation kinetics on MIF tautomerase; type: biochemical; conditions: for KI (inactivation) / kinact: Kitz-Wilson analysis, ±SD, n=3; for KI (inactivation): read-out: KI MIF (inhibition constant); for kinact: read-out: kinact MIF (rate of enzyme inactivation) (converted)
Method: (§15) In order to derive the kinetic parameters for inactivation of MIFand MIF2, we employed the approach described by Kitz and Wilson. Briefly, four different concentrations of the inhibitor with four different pre-incubation times were selected. The assay conditions are described above with the difference in incubation time.
(§16) For the data analysis, the pre-incubation times for the different concentration of the inhibitor versus the remaining enzyme activity were plotted, so from the linear regression the slope of each concentration of the probe was obtained ( Table S3). Then the 1/slope versus 1/[inhibitor] were plotted (Figure 4) and from the linear regression line ki was derived from the 1/y -intercept and derived from the slope times the ki as described by Kitz and Wilson.
For example, for the probe 8 the equation is: Y = 7,476*X + 5,069
So, the kinact and the KI values are: kinact =1/5,069 =0.20 min-1
(also on this page, place not known: -1 0 1 2 3 0 50 100 log [FM011] (µM) DDT (%) -1 0 1 2 3 0 50 100 log [ZP308] (µM) DDT activity (%) 0.0 0.5 1.0 1.5 2.0 0 50 100 log [ZP307] (µM) DDT activity (%) 1.4 1.6 1.8 2.0 2.2 0 50 100 log [FM031] (µM) DDT activity (%) pre -incubation cond itions pre -incubation activity o f (Table 1/y-intercept) […]
(§17) Table S4. Kinetics studies results.
(§18) Time-dependent inhibition Kitz and Wilson curve […]
ln (MIF tautomerase activity %)
Time-dependent inhibition on MIF Y = 7,476*X + 5,069
Time-dependent inhibition on MIF Y = 12,07*X + 4,234 […]
ln (MIF2 tautomerase activity %)
(§19) Time-dependent inhibition on MIF2 Y = 299,5*X + 11,14 […]

MIF2 [6] = target: T2, MIF2; experiment: Kitz-Wilson inactivation kinetics on MIF2 tautomerase; type: biochemical; conditions: Kitz-Wilson analysis, ±SD, n=3
Method: as §15, §16
For example, for the probe 8 the equation is: Y = 7,476*X + 5,069 […]
as §17, §18
ln (MIF tautomerase activity %) […]
as §19

[7] = Table 1, tautomerase activity, mean±SD, n=3, read-out: IC50 MIF
[8] = Table 1, tautomerase activity, mean±SD, n=3, read-out: IC50 MIF2
[9] = Table S1, 10 min, read-out: IC50 (µM) MIF
[10] = Table S1, 10 min, read-out: IC50 (µM) MIF2
[11] = Table 2, 10 min pre-incubation, ±SD, n=3, read-out: IC50 MIF
[12] = Table 2, 10 min pre-incubation, ±SD, n=3, read-out: IC50 MIF2

SMILES | IC50 (MIF [1]; [7]) | IC50 (MIF2 [2]; [8]) | IC50 (MIF [1]; [9]) | IC50 (MIF2 [2]; [10]) | also measured
Ic1cc(-c2ccccc2)ncn1 [Compound 1, 4‐iodo‐6‐phenylpyrimidine, reference compound] | 4 ± 0.98 µM | > 250 µM | – | – | potency relative to corresponding chloro-substituted intermediate (MIF [1]; Table S1): at least two times more potent
Clc1cc(-c2ccccc2)ncn1 [Compound 1a] | – | – | 16 µM | > 250 µM | –
O=C(O)c1ccc(-c2cc(I)ncn2)cc1 [Compound 2] | 5 ± 0.46 µM | 125 ± 15 µM | – | – | potency relative to corresponding chloro-substituted intermediate (MIF [1]; Table S1): at least two times more potent; labeling of MIF2 by probe 8 after pre-incubation with inhibitor (MIF2 [3]): outcompeted; labeling of MIF by probe 8 after prior treatment with inhibitor (MIF [4]): abolished
O=C(O)c1ccc(-c2cc(Cl)ncn2)cc1 [Compound 2a] | – | – | 17 µM | > 250 µM | –
Cc1nc(I)cc(-c2ccc(C(=O)O)cc2)n1 [Compound 3] | > 250 µM | > 250 µM | – | – | –
Cc1nc(Cl)cc(-c2ccc(C(=O)O)cc2)n1 [Compound 3a] | – | – | 95 µM | 103 µM | IC50 (MIF [1]; Table S2 dose-inhibition curves, read-out: IC50 MIF tautomerase): 72 ± 17 µM; IC50 (MIF2 [2]; Table S3 dose-inhibition curves (DDT activity), read-out: IC50 MIF2 tautomerase): 107 ± 6 µM
O=C(O)c1ccc(-c2cc(I)nc(N3CCOCC3)n2)cc1 [Compound 4] | 15 ± 7.5 µM | > 250 µM | – | – | potency relative to corresponding chloro-substituted intermediate (MIF [1]; Table S1): at least two times more potent
O=C(O)c1ccc(-c2cc(Cl)nc(N3CCOCC3)n2)cc1 [Compound 4a] | – | – | 174 µM | > 250 µM | –
O=C(O)c1ccc(-c2cc(I)nc(-c3ccccc3)n2)cc1 [Compound 5, 4-(6-Iodo-2-phenylpyrimidin-4-yl)benzoic acid] | 59 ± 6.3 µM | > 250 µM | – | – | –
O=C(O)c1ccc(-c2cc(Cl)nc(-c3ccccc3)n2)cc1 [Compound 5a, 4-(6-Chloro-2-phenylpyrimidin-4-yl)benzoic acid] | – | – | 36 µM | 85 µM | –
Cc1c(I)ncnc1-c1ccc(C(=O)O)cc1 [Compound 6, 4-(6-Iodo-5-methylpyrimidin-4-yl)benzoic acid] | 56 ± 12 µM | > 250 µM | – | – | potency relative to corresponding chloro-substituted intermediate (MIF [1]; Table S1): at least two times more potent
Cc1c(Cl)ncnc1-c1ccc(C(=O)O)cc1 [Compound 6a, 4-(6-Chloro-5-methylpyrimidin-4-yl)benzoic acid] | – | – | > 250 µM | > 250 µM | –
O=[N+]([O-])c1ccc(-c2cc(I)ncn2)cc1 [Compound 7, 4-Iodo-6-(4-nitrophenyl)pyrimidine] | 0.63 ± 0.06 µM | > 250 µM | – | – | IC50 (MIF [1]; [11]): 0.63 ± 0.06 µM; selectivity for MIF over MIF2 (MIF [1]; from tautomerase IC50 values): > 400 fold; potency relative to corresponding chloro-substituted intermediate (MIF [1]; Table S1): at least two times more potent; KI (inactivation) (MIF [5]): 3.9 ± 0.7 µM; kinact (MIF [5]): 0.00467 s⁻¹; IC50 (MIF2 [2]; [12]): > 250 µM
O=[N+]([O-])c1ccc(-c2cc(Cl)ncn2)cc1 [Compound 7a, 4-Chloro-6-(4-nitrophenyl)pyrimidine] | – | – | 1.4 µM | > 250 µM | –
Nc1ccc(-c2cc(Cl)ncn2)cc1 [Compound 8a, 4-(6-Chloropyrimidin-4-yl)aniline] | – | – | 1.7 µM | 83 µM | –
O=C(CCCC[C@@H]1SC[C@@H]2NC(=O)N[C@@H]21)NCCNC(=O)c1ccc(-c2cc(I)ncn2)cc1 [Compound 9] | – | – | – | – | IC50 (MIF [1]; [11]): 0.24 ± 0.05 µM; IC50 (MIF [1]; approximate, read-out: IC50 on MIF): ~0.2 µM; KI on MIF relative to IC50 (MIF [5]; KI higher than IC50): about 10 times; KI (inactivation) (MIF [5]): 2.8 ± 0.67 µM; kinact (MIF [5]): 0.004 s⁻¹; improvement of potency for MIF2 inhibition compared to parental inhibitor 2 (MIF2 [2]): 2–6 factor; IC50 (MIF2 [2]; [12]): 78 ± 7.7 µM; kinact MIF2 (rate of enzyme inactivation) (MIF2 [6]): 0.061 ± 0.010 min⁻¹; KI (inactivation) (MIF2 [6]; read-out: KI MIF2 (inhibition constant)): 85 ± 8.6 µM; kinact (MIF2 [6]; read-out: kinact MIF2 (rate of enzyme inactivation)): 0.001 to 0.0015 s⁻¹
CC(C)c1nc(I)cc(-c2ccc(C(=O)O)cc2)n1 [Compound 11, 4-(6-Iodo-2-isopropylpyrimidin-4-yl)benzoic acid] | – | – | 112 µM | > 250 µM | –
CC(C)c1nc(Cl)cc(-c2ccc(C(=O)O)cc2)n1 [Compound 11a, 4-(6-Chloro-2-isopropylpyrimidin-4-yl)benzoic acid] | – | – | > 250 µM | > 250 µM | –
